Holding throughout (experiment): NCI anticancer screen, dose series, 48 h
Assay [1] has as its system 786-0 renal.
The test system of assay [2] is CAKI-1 renal.
Assay [3] has as its system COLO 205 colon.
In assay [4] the test system is HCT-116 colon.
Assay [5] has as its system KM12 colon.
In assay [6] the test system is MDA-N.
Assay [7] has as its system MOLT-4 leukemia.
The test system of assay [8] is OVCAR-3 ovarian.
Assay [9] concerns OVCAR-5 ovarian.
The subject of assay [10] is SF-539 CNS.
The subject of assay [11] is SK-MEL-28 melanoma.
Assay [12] deals with SK-MEL-5 melanoma.
Assay [13] concerns SR leukemia.
Assay [14] has as its system SW-620 colon.
Assay [15] concerns TK-10 renal.
Assay [16] concerns U251 CNS.
In assay [17] the test system is UACC-257 melanoma.
Assay [18] deals with UACC-62 melanoma.
The test system of assay [19] is A498 renal.
For assay [20], the system named is RXF 393 renal.

The structures appear in SMILES notation.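 Method: 48-hour compound exposure of cells in 96-well plates, five concentrations, linear interpolation of endpoints. TGI marks complete inhibition of growth.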

Turning to `CC[C@]1(Cc2ccc(OC)c(OC)c2)[C@@H]2C[C@@H](C3OCCO3)ON2O[C@H](OC2CCCC2(c2ccccc2)c2ccccc2)[C@@H]1OC(C)=O` (some centres undefined), the TGI is 41.1 µM in assay [1]; 82.1 µM in [2]; 69.3 µM in [3]; 50.9 µM in [4]; 29.5 µM in assay [5]; > 100 µM in assay [6]. The TGI in assay [7] was 29 µM; in assay [8], 25.4 µM; in assay [9] it was 36 µM; in assay [10] it was > 100 µM; in assay [11], 47.3 µM; in [12] it was 37.7 µM. The TGI in assay [13] is 45.5 µM; in assay [14] it was > 100 µM; in assay [15] it was > 100 µM; in [16], > 100 µM; in [17] it was 43.9 µM; in assay [18], > 100 µM.
For `CC(=C\c1ccccc1)/C=C(\C#N)C(N)=O`, the TGI in assay [1], in assay [19], in assay [2], in [3], in assay [5] and in [6] was > 10 µM throughout. The TGI in [8], in [9], in assay [20], in assay [10], in [11] and in [12] was > 10 µM each time. Also, the TGI in assay [14], in assay [15] and in [16] was > 10 µM each time.
Turning to `CCOP(=O)(O)C(C)(C)NC`, the TGI in assay [1], in assay [19], in assay [3], in assay [4], in assay [5] and in assay [6] was > 100 µM in each case. Besides, the TGI in assay [7], in assay [8], in assay [9], in assay [20], in [10] and in assay [11] was > 100 µM in each case. Further, the TGI in [12], in [14], in assay [15], in assay [16], in [17] and in [18] was > 100 µM each time.
As to `Cc1c(O)c(C)c2c(C)cn(C(=O)C(C)(C)C)c2c1C`, the TGI was found to be 36.3 µM in assay [1]; 30 µM in assay [19]; 30.3 µM in assay [3]; 45.3 µM in assay [4]; 27.2 µM in [5]; 38.8 µM in assay [6]. For the same compound, the TGI in [7] was 55.2 µM; in assay [8], > 100 µM; in [9] it was 83 µM; in assay [20], 41.6 µM; in assay [10] it was 30 µM; in [11], 28.7 µM. The TGI in [12] was determined as 27.8 µM; in assay [14] it was 74.4 µM; in assay [15], 36.4 µM; in assay [16], 69 µM; in assay [18], 28.5 µM.
As for `CC(NNC(=O)CC(=O)N(C(=O)c1ccccc1)c1ccc(Cl)cc1)c1cc2ccccc2oc1=O` (centres undefined), the TGI in [1], in assay [19], in assay [2], in assay [3], in [4] and in assay [5] was > 10 µM in each case. The TGI in [6], in assay [7], in assay [8], in assay [9], in assay [20] and in assay [10] was > 10 µM in each case. In addition, the TGI in [11], in [12], in assay [14], in assay [15], in assay [16] and in assay [17] was > 10 µM in each case. The TGI in [18] is > 10 µM.
Turning to `N#CC1(C#N)C2CCCCC23OC(=N)C1(C#N)C(c1ccccc1)O3` (centres undefined), the TGI in [1] stood at 33.7 µM; in assay [19], 48.9 µM; in assay [2] it was 24.5 µM; in assay [3] it was 34.1 µM; in [4], 41.4 µM; in assay [5], 25.8 µM. For the same compound, the TGI in assay [6] was 27.9 µM; in [7], > 100 µM; in assay [8], 28.2 µM; in assay [9] it was 50.6 µM; in [20] it was > 100 µM; in assay [10], 42.1 µM. For the same compound, the TGI in assay [12] is 33 µM; in assay [14], > 100 µM; in [15] it was 37.6 µM; in assay [16], 69.6 µM; in assay [17], 37.3 µM; in assay [18], 49.4 µM.
For `Cc1ccc(C(=O)N/N=C(\N=Nc2ccccc2[N+](=O)[O-])c2ccc(N(C)C)cc2)cc1`, the TGI in [1], in assay [2], in assay [3], in assay [4], in assay [5] and in [6] was > 100 µM in each case. Also, the TGI in assay [7], in assay [8], in assay [9], in assay [10], in assay [11] and in assay [12] was > 100 µM throughout. Also, the TGI in [13], in assay [14], in assay [15], in assay [16], in [17] and in assay [18] was > 100 µM in each case.
Take `CCCCn1c(C)c2c(c1C)C(=O)N(CC(O)CN1CCc3ccccc3C1)C2=O` (centres undefined): the TGI in [1], in [19], in assay [2], in assay [3], in assay [4] and in [5] was > 100 µM in each case. In addition, the TGI in [6], in assay [7], in assay [8], in [9], in [20] and in assay [10] was > 100 µM in each case. Moreover, the TGI in [11], in assay [12], in [14], in assay [15], in assay [16] and in assay [17] was > 100 µM throughout. In assay [18], the TGI was > 100 µM.
In the case of `CC(C)(C)NC(=O)N1N=C(c2ccccc2)C1c1ccccc1` (centres undefined), the TGI was 32 µM in [1]; > 100 µM in assay [19]; 59.1 µM in assay [2]; > 100 µM in assay [3]; 52.8 µM in assay [4]; > 100 µM in assay [5]. The TGI in [6] was > 100 µM; in assay [8], 50.3 µM; in assay [9], > 100 µM; in [20] it was 36.6 µM; in assay [10] it was 41.4 µM; in assay [11], > 100 µM. The TGI in assay [12] is 47 µM; in assay [14] it was > 100 µM; in assay [15], > 100 µM; in assay [16] it was > 100 µM; in assay [17], > 100 µM; in [18], > 100 µM.
Take `O=[N+]([O-])c1cc2c(c3nonc13)OCCCCO2`: the TGI in assay [1] stood at 10.7 µM; in [19], 47.6 µM; in [2], 34.3 µM; in [3], 17.9 µM; in assay [4], 3.46 µM; in assay [5] it was 20.7 µM. In addition, the TGI in assay [6] turned out to be 16.4 µM; in assay [7] it was 9.79 µM; in [8], 7.53 µM; in assay [9], 26.2 µM; in [20] it was 20 µM; in assay [10], 7.27 µM. Further, the TGI in assay [11] is 22.5 µM; in assay [12], 21.2 µM; in assay [14], 20.7 µM; in assay [15], 93.7 µM; in assay [16], 45.5 µM; in assay [17] it was 28.9 µM. Also, the TGI in assay [18] was 21.5 µM.
In the case of `COc1ccc(-c2c(C#N)c(O)n(NS(=O)(=O)c3ccc(C)cc3)c(=O)c2C#N)cc1`, the TGI in assay [1], in [19], in assay [2], in [3], in assay [4] and in [5] was > 100 µM each time. The TGI in assay [6] was > 100 µM; in assay [7], 66.1 µM; in assay [9], > 100 µM; in assay [20] it was > 100 µM; in assay [10], > 100 µM; in assay [11], > 100 µM. In addition, the TGI in [12], in assay [14], in assay [15], in assay [16], in [17] and in assay [18] was > 100 µM throughout.
Turning to `O=C(O)c1cccnc1`, the TGI in [1], in [2], in assay [3], in assay [4], in [5] and in assay [6] was > 100 µM each time. The TGI in assay [7], in [8], in [9], in assay [10], in assay [11] and in assay [12] was > 100 µM each time. In addition, the TGI in assay [13], in assay [14], in assay [15], in [16] and in assay [17] was > 100 µM each time.
Take `CC(C)(C)c1cc(C(CO)OCCOCCO)cc(C(C)(C)C)c1O` (centres undefined): the TGI in [1], in assay [19], in assay [2], in [3], in assay [4] and in [5] was > 100 µM in each case. For the same compound, the TGI in assay [6], in assay [8], in [9], in assay [20], in assay [10] and in [11] was > 100 µM each time. For the same compound, the TGI in [12], in [14], in [15], in [16], in [17] and in [18] was > 100 µM throughout.
Take `CN(CCN(C)C(=S)NN)C(=S)NN`: the TGI in assay [1], in [2], in assay [3], in assay [4], in assay [5] and in assay [6] was > 100 µM throughout. In addition, the TGI in [7], in [8], in [9], in [11], in assay [12] and in assay [13] was > 100 µM each time. In addition, the TGI in assay [14], in [16], in assay [17] and in assay [18] was > 100 µM in each case.
Turning to `COc1ccc(-c2nc(SCC(=O)N/N=C/c3ccc(O)c(OC)c3)[nH]c2-c2ccc(OC)cc2)cc1`, the TGI is 42 µM in assay [1]; 33.2 µM in assay [19]; > 100 µM in assay [2]; 34.4 µM in assay [3]; 33.3 µM in assay [4]; > 100 µM in [5]. Also, the TGI turned out to be 52.3 µM in [6]; 48 µM in assay [8]; 63.7 µM in assay [9]; 36.5 µM in assay [20]; 36.5 µM in assay [10]; 74.8 µM in assay [11]. Moreover, the TGI was 31.7 µM in assay [12]; > 100 µM in [14]; > 100 µM in assay [15]; 40.8 µM in assay [16]; 69.5 µM in assay [17]; 27.4 µM in [18].
On to `CCCNC(=S)/N=C/c1c(O)c2ccccc2[nH]c1=O`, for which the TGI in assay [1], in [19], in assay [2], in assay [3], in [4] and in assay [5] was > 100 µM each time. The TGI in assay [6], in assay [7], in [8], in [9], in assay [20] and in [10] was > 100 µM throughout. In addition, the TGI in assay [12], in assay [14], in [15], in [16], in assay [17] and in assay [18] was > 100 µM in each case.

The record behind these values is PubChem BioAssay (NCI).
